Data on 50 molecules can be found in EP2697230B1, “COMPOUNDS FOR THE TREATMENT OF HEPATITIS C” (priority 2011, dated 2012).

Structures are written as SMILES. Where two headings read alike, the source gives them in different places.

The test system of this test is HCV pseudoparticles, genotype 1a HCV E1 and E2 envelope (H77C isolate). Nature of the test: HCV pseudoparticle infection assay (luciferase reporter, Huh7 cells). Format: cell-based.
Where [1] appears, read: Hepatitis C virus, Huh-7, 48 h, read-out: EC50 (nM) 1a (H77C), class symbol, HCV pseudoparticles genotype 1a (H77C), luciferase 2 days after infection.
Setting [2] is: Hepatitis C virus, Huh-7, 48 h, read-out: EC50 (nM) 1a (H77C), numeric value, HCV pseudoparticles genotype 1a (H77C), luciferase 2 days after infection.
The mark [3] stands for this setting: class symbol, HCV pseudoparticles genotype 1a (H77C), luciferase 2 days after infection, read-out: EC50 (nM) 1a (H77C).
Where [4] appears, read: numeric value, HCV pseudoparticles genotype 1a (H77C), luciferase 2 days after infection, read-out: EC50 (nM) 1a (H77C).

Turning to `CN1CCCNC(=O)c2ccc(cc2)Nc2nc(nc(OCC(F)(F)F)n2)Nc2ccc(cc2)C(=O)NCCC1` [Example 0022], the EC50 under setting [1] was in the range of 100 to 1000 nM. Turning to `CCOC(=O)N1CCCCNC(=O)c2ccc(cc2)Nc2nc(nc(OCC(F)(F)F)n2)NCc2ccc(cc2)OCC1` [Example 4014], the EC50 under setting [1] fell in the range of 0.1 to 100 nM. Still for that read-out and setting: the figure for `CC(C)NC(=O)N1CCCCOc2ccc(cc2)CNc2nc(nc(OCC(F)(F)F)n2)Nc2ccc(cc2)C(=O)NCCC1` [Example 4032] is 0.1 to 100 nM; for `CNC(=O)N1CCCCCCCCNc2nc(nc(OCC(F)(F)F)n2)Nc2ccc(cc2)C(=O)NCCC1` [Example 9006] it is 0.1 to 100 nM; for `CC(C)(C)NC(=O)N1CCCCNC(=O)c2ccc(cc2)Nc2nc(nc(OCC(F)(F)F)n2)NCc2ccc(cc2)OCCC1` [Example 6023] it is 0.1 to 100 nM. For the molecule `CN1CCCNC(=O)c2ccc(cc2)Nc2nc(nc(OCC(F)(F)F)n2)NCc2ccc(cc2)OCCC1` [Example 6018], the concentration for a half-maximal effect (EC50) under setting [1] is 0.1 to 100 nM. `CCCCN1CCCNC(=O)c2ccc(cc2)Nc2nc(nc(OCC(F)(F)F)n2)NCc2ccc(cc2)OCCC1` [Example 6019]: under setting [1], the EC50 was in the range of 0.1 to 100 nM. For the molecule `O=C1NCc2ccc(cc2)CNc2nc(nc(OCC(F)(F)F)n2)Nc2ccc(cc2)CNC(=O)OCCOCCOCCO1` [Example 0067], under setting [1], the EC50 was in the range of 100 to 1000 nM. Regarding `O=C1NCCCCCCNC(=O)NCc2cccc(c2)CNc2nc(nc(OCC(F)(F)F)n2)Nc2ccc(cc2)CN1` [Example 0056], under setting [1], the concentration for a half-maximal effect (EC50) lay within 100 to 1000 nM. For `O=C1CCCCCCC(=O)NCc2ccc(cc2)Nc2nc(nc(OCC(F)(F)F)n2)NCc2ccc(cc2)CN1` [Example 0063], under setting [1], the EC50 is 100 to 1000 nM.

Regarding `CNC(=O)N1CCCCNC(=O)c2ccc(cc2)Nc2nc(nc(OCC(F)(F)F)n2)NCc2ccc(cc2)OCCC1` [Example 6021], the EC50 under setting [1] was in the range of 0.1 to 100 nM.

With `O=C1COCC(=O)NCc2ccc(cc2)Nc2nc(nc(OCC(F)(F)F)n2)NCc2ccc(cc2)CN1` [Example 0069], the EC50 under setting [1] was in the range of 0.1 to 100 nM and the EC50 under setting [2] came to 78.8 nM. `O=C1NCc2ccc(cc2)Nc2nc(nc(OCC(F)(F)F)n2)NCc2cccc(c2)CNC(=O)NC2CCC(CC2)CC2CCC(CC2)N1` [Example 0054]: the EC50 under setting [1] is 1000 to 5000 nM and the EC50 under setting [2] was found to be 5210 nM. As for `CCNC(=O)N1CCCNC(=O)c2ccc(cc2)Nc2nc(nc(OCC(F)(F)F)n2)NCc2ccc(cc2)OCCC1` [Example 6012], the concentration for a half-maximal effect (EC50) was 0.1 to 100 nM under setting [1] and 6.1 nM under setting [2]. With `O=C1NCCCCCNc2cccc(c2)C2(CC2)Nc2nc(nc(OCC(F)(F)F)n2)Nc2ccc1cc2` [Example 3001], the EC50 under setting [1] is 0.1 to 100 nM. With `CCNC(=O)N1CCCCNC(=O)c2ccc(cc2)Nc2nc(nc(OCC(F)(F)F)n2)NCc2ccc(cc2)OCCC1` [Example 6022], the EC50 was 0.1 to 100 nM under setting [1] and 11.8 nM under setting [2]. As to `CCC(=O)N1CCCCOc2ccc(cc2)CNc2nc(nc(OCC(F)(F)F)n2)Nc2ccc(cc2)C(=O)NCCC1` [Example 4019], the EC50 under setting [1] was in the range of 0.1 to 100 nM.

Take `O=C1CNC(=O)c2ccc(cc2)Nc2nc(nc(OCC(F)(F)F)n2)NCc2ccc(cc2)OCC=CCS(=O)(=O)N1` [Example 3007]: the EC50 is, setting by setting: under setting [1], 100 to 1000 nM; under setting [2], 557 nM. Regarding `CN1CCCOc2ccc(cc2)CNc2nc(nc(OCC(F)(F)F)n2)Nc2ccc(cc2)C(=O)NCC(C)(C)C1` [Example 6040], under setting [1], the EC50 was in the range of 0.1 to 100 nM. On to `O=C1NC2CNCC2C(=O)NCCCCCCOc2ccc(cc2)CNc2nc(nc(OCC(F)(F)F)n2)Nc2ccc1cc2` (centres unmarked) [Example 0007], for which the EC50 under setting [3] fell in the range of 0.1 to 100 nM and the EC50 under setting [4] worked out at 8.31 nM. Turning to `CCCOC(=O)N1CCCOc2ccc(cc2)CNc2nc(nc(OCC(F)(F)F)n2)Nc2ccc(cc2)C(=O)NCC(C)(C)C1` [Example 6034], the EC50 under setting [1] lay in the range of 0.1 to 100 nM. Take `O=C1COCC(=O)NCc2cccc(c2)CNc2nc(nc(OCC(F)(F)F)n2)Nc2ccc(cc2)CN1` [Example 0070]: the EC50 under setting [1] is 0.1 to 100 nM. On the same count and under the same terms, the figure for `COC(=O)N1CCCOc2ccc(cc2)CNc2nc(nc(OCC(F)(F)F)n2)Nc2ccc(cc2)C(=O)NCC(C)(C)C1` [Example 6032] is 0.1 to 100 nM; for `O=C1CCCCCCCCC(=O)NCc2cccc(c2)CNc2nc(nc(OCC(F)(F)F)n2)Nc2ccc(cc2)CN1` [Example 0065] it is 100 to 1000 nM; for `CCNC(=O)N1CCCOc2ccc(cc2)CNc2nc(nc(OCC(F)(F)F)n2)Nc2ccc(cc2)C(=O)NCC(C)(C)C1` [Example 6028] it is 0.1 to 100 nM.

Turning to `O=C1NCCCNCCCCCCCCNc2nc(nc(OCC(F)(F)F)n2)Nc2ccc1cc2` [Example 9001], the EC50 reads like this: under setting [3], 100 to 1000 nM; under setting [4], 243 nM. With `COC(=O)N1CCCNC(=O)c2ccc(cc2)Nc2nc(nc(OCC(F)(F)F)n2)NCc2ccc(cc2)OCCC1` [Example 6014], the EC50 is, setting by setting: under setting [1], 0.1 to 100 nM; under setting [2], 1.51 nM. Turning to `CCCOC(=O)N1CCCNC(=O)c2ccc(cc2)Nc2nc(nc(OCC(F)(F)F)n2)NCc2ccc(cc2)OCCC1` [Example 6016], the EC50 under setting [1] is 0.1 to 100 nM.

Take `CCN(CC)CCN1CCNC(=O)c2ccc(cc2)Nc2nc(nc(OCC(F)(F)F)n2)Nc2ccc(cc2)C1=O` [Example 0021]: under setting [1], the EC50 lay within 100 to 1000 nM. For the molecule `CC(C)N1CCCNC(=O)c2ccc(cc2)Nc2nc(nc(OCC(F)(F)F)n2)NCc2ccc(cc2)OCCC1` [Example 6025], the EC50 under setting [1] was in the range of 0.1 to 100 nM. For `O=C1CCCC(=O)NCc2cccc(c2)CNc2nc(nc(OCC(F)(F)F)n2)Nc2ccc(cc2)CN1` [Example 0062], under setting [1], the EC50 was in the range of 100 to 1000 nM. For the molecule `CNC(=O)N1CCCCNC(=O)c2ccc(cc2)Nc2nc(nc(OCC(F)(F)F)n2)NCc2ccc(cc2)OCC1` [Example 4006], the EC50 under setting [1] lay in the range of 0.1 to 100 nM. On to `CC(C)(C)C(=O)N1CCCCNC(=O)c2ccc(cc2)Nc2nc(nc(OCC(F)(F)F)n2)NCc2ccc(cc2)OCC1` [Example 4005], for which the EC50 under setting [1] was in the range of 0.1 to 100 nM. Take `O=C1NCCCCNC(=O)c2ccc(cc2)Nc2nc(nc(OCC(F)(F)F)n2)NCc2ccc1cc2` [Example 0033]: under setting [1], the EC50 was in the range of 100 to 1000 nM.

For the molecule `COCC(=O)N1CCCCNC(=O)c2ccc(cc2)Nc2nc(nc(OCC(F)(F)F)n2)NCc2ccc(cc2)OCC1` [Example 4035], the EC50 under setting [1] is 0.1 to 100 nM and the EC50 under setting [2] was determined as 4.37 nM. As for `CCCNC(=O)N1CCCOc2ccc(cc2)CNc2nc(nc(OCC(F)(F)F)n2)Nc2ccc(cc2)C(=O)NCC(C)(C)C1` [Example 6030], under setting [1], the EC50 is 0.1 to 100 nM.

With `CCC(=O)N1CCCCNC(=O)c2ccc(cc2)Nc2nc(nc(OCC(F)(F)F)n2)NCc2ccc(cc2)OCC1` [Example 4003], the EC50 under setting [1] is 0.1 to 100 nM.

In the case of `O=C1NCc2ccc(cc2)Nc2nc(nc(OCC(F)(F)F)n2)NCc2cccc(c2)CNC(=O)Nc2cccc(c2)N1` [Example 0052], the EC50 under setting [1] was in the range of 100 to 1000 nM. As for `CC1(C)C(=O)NCc2ccc(cc2)Nc2nc(nc(OCC(F)(F)F)n2)NCc2cccc(c2)CNC1=O` [Example 0072], the EC50 under setting [1] is 0.1 to 100 nM. On to `CCNC(=O)N1CCCCOc2ccc(cc2)CNc2nc(nc(OCC(F)(F)F)n2)Nc2ccc(cc2)C(=O)NCCC1` [Example 4031], for which the EC50 under setting [1] is 0.1 to 100 nM. The same measure, in the same setting: the result for `CC(C)NC(=O)N1CCCCNC(=O)c2ccc(cc2)Nc2nc(nc(OCC(F)(F)F)n2)NCc2ccc(cc2)OCC1` [Example 4008] reads 0.1 to 100 nM; that for `CC1(C)NC(=O)NCc2ccc(cc2)Nc2nc(nc(OCC(F)(F)F)n2)NCc2cccc(c2)CNC(=O)NC(C)(C)c2cccc1c2` [Example 0058], 100 to 1000 nM; that for `CC(C)(C)OC(=O)N1CCCOc2ccc(cc2)CNc2nc(nc(OCC(F)(F)F)n2)Nc2ccc(cc2)C(=O)NCC1` [Example 6002], 0.1 to 100 nM. Turning to `O=C1NCCCNCCCOc2ccc(cc2)C2(CC2)Nc2nc(nc(OCC(F)(F)F)n2)Nc2ccc1cc2` [Example 5001], under setting [3], the EC50 is 0.1 to 100 nM. Take `CN1CCNC(=O)c2ccc(cc2)CNc2nc(nc(OCC(F)(F)F)n2)Nc2ccc(cc2)C(=O)NCC1` [Example 0042]: the EC50 under setting [1] was 100 to 1000 nM.

As to `CC1(C)CNC(=O)c2ccc(cc2)Nc2nc(nc(OCC(F)(F)F)n2)NCc2ccc(cc2)OCCCN(C(=O)NC(C)(C)C)C1` [Example 6031], under setting [1], the EC50 was in the range of 0.1 to 100 nM.

Take `CCN(CC)CCN1CCNC(=O)c2ccc(cc2)CNc2nc(nc(OCC(F)(F)F)n2)Nc2ccc(cc2)C1=O` [Example 0035]: the 50% effective concentration (EC50) under setting [1] is 1000 to 5000 nM.

As to `CCN1CCCOc2ccc(cc2)CNc2nc(nc(OCC(F)(F)F)n2)Nc2ccc(cc2)C(=O)NCC(C)(C)C1` [Example 6041], the EC50 under setting [1] was in the range of 0.1 to 100 nM. Still for that read-out and setting: the result for `CCOC(=O)N1CCCNC(=O)c2ccc(cc2)Nc2nc(nc(OCC(F)(F)F)n2)NCc2ccc(cc2)OCCC1` [Example 6015] reads 0.1 to 100 nM; that for `CCN1CCCNC(=O)c2ccc(cc2)Nc2nc(nc(OCC(F)(F)F)n2)NCc2ccc(cc2)OCCC1` [Example 6026], 0.1 to 100 nM.
